Patent publication US20030215817A1, “Modulation of gene expression in formation of fatty atherosclerotic lesions” (priority 2003, published 2003)
Structures can show the parent of a compound that is named as a salt.

Experiments:
[1] = test system: REC1_13 (MspI GCCC 216) mRNA; assay: quantified RT-PCR, Rec1_13; format: in vivo, rabbit; details: for Relative Abundance Rec1_13, 100 pg F: hypercholesterolemic plus lercanidipine racemate, eight weeks, H2 (normocholesterolemic)=1.0
Method: (§1) Nineteen of the isolated DST clones were further validated using RT-PCR analyses; the data are presented in FIGS. 6-24 and in Tables 5-23, below. For each DST examined, the optimal annealing temperature and reagent conditions were determined for the corresponding set of primers (see Table 25) based on results from a preliminary experiment. In eight separate reactions, each set of primers was assayed to find the optimal conditions by adjusting the following four parameters: primer concentration, dNTP concentration, MgCl2 concentration, and number of Taq polymerase units. Once optimal conditions were determined, each DST was run in duplicate multiple simultaneous reactions which usually included at least four dilutions of template (cDNA library), plus control reactions lacking template, and six sequential data points for numbers of cycles.
(§2) Reactions were performed using “Hot Start” PCR with the Clontech TaqStart antibody system (Cat. #5400-1). Each reaction contained 1 ml of the cDNA library dilution as template, determined amounts of AmpliTaq DNA polymerase (cat. #N808-0156), MgCl2, dNTPs (GibcoBRL cat. #10297-018), primer, and Clontech TaqStart Antibody in a 20 ml final reaction volume using 10×Taq buffer II (without MgCl2). Typically, a master mix containing all components except the template was prepared and aliquoted. Various templates were then added to these master mix samples and 20 ml volumes were subsequently dispensed into individual reaction tubes. At various times during the PCR run, tubes were removed sequentially on a predetermined schedule in order to quantitate expression of the target DST over a “window” of cycle times. After amplification, the samples were quantified via fluorimetry.
(§3) PCR was performed at annealing temperatures that were five degrees above the average melting temperature of each primer pair. For primers greater than 10 bases (in a 0.05M salt solution), melting temperature was calculated using the following formula: Tm=59.9+41[% GC]−[675/Primer Length], where %GC is the decimal value. Following determination of the average melting temperature of the primer pair, the annealing temperature was determined by adding five degrees to the average melting temperature. PCR was performed using the following program: 1) 95 degrees Celsius, 3 minutes; 2) 95 degrees Celsius, 30 seconds; 3) TM+5 degrees Celsius, 30 seconds; 4) 72 degrees Celsius, for a time dependent on target length at 16 bp/second; 5) repeat steps 2-4 33 more cycles; 6) 72 degrees Celsius, 3 minutes; 7) 14 degrees Celsius, forever.
(§4) Following temperature cycling, 2 ml of the PCR reaction was added to 140 ml of a 1:280 dilution of PicoGreen (Molecular Probes cat. #P-11495 (10×100 ml)) in TE pH 7.5 in a 96-well Costar UV microtiter plate (Fisher cat. #07-200623). The samples were mixed gently for 1.5 minutes and allowed to equilibrate at room temperature in the dark for 15 minutes. The concentration of the PCR products was quantified by fluorimetry using a PerSeptive Biosystems CytoFluor series 4000 multi-well plate reader.
(§5) Background fluorescence was determined by using duplicate control samples that were cycled with all reaction components except the template. The mean value from these duplicate background control samples was subtracted from the corresponding experimental values prior to analyzing results. The sensitivity of the PicoGreen dsDNA assay is reported to be 250 pg/ml (50 pg dsDNA in a […] assay volume) using a fluorescence microplate reader such as was used in these measurements. […]

[2] = test system: REC1_18 (MspI TGGT 241) mRNA; assay: quantified RT-PCR, Rec1_18; format: in vivo, rabbit; details: for Relative Abundance Rec1_18, 20 pg F: hypercholesterolemic plus lercanidipine racemate, eight weeks, H2 (normocholesterolemic)=1.0
Method: as §1, §2, §3, §4, §5

[3] = test system: REC1_16 (TCGG 195) mRNA; assay: quantified RT-PCR, Rec1_16; format: in vivo, rabbit; details: for Relative Abundance Rec1_16, 20 pg F: hypercholesterolemic plus lercanidipine racemate, eight weeks, H2 (normocholesterolemic)=1.0
Method: as §1, §2, §3, §4
as §5, with “The mean value from these duplicate background control samples was subtracted from the corresponding experimental values prior to analyzing results.” left out

[4] = test system: REC1_19 (TGTT 393) mRNA; assay: quantified RT-PCR, Rec1_19; format: in vivo, rabbit; details: for Relative Abundance Rec1_19, 100 pg F: hypercholesterolemic plus lercanidipine racemate, eight weeks, H2 (normocholesterolemic)=1.0
Method: as §1, §2, §3, §4, §5

[5] = test system: Rec1_21 (TTCC 165) mRNA; assay: quantified RT-PCR, Rec1_21; format: in vivo, rabbit; details: for Relative Abundance Rec1_21, 20 pg F: hypercholesterolemic plus lercanidipine racemate, eight weeks, H2 (normocholesterolemic)=1.0
Method: as §1, §2, §3, §4
Background fluorescence was determined by using duplicate control samples that were cycled with all reaction components except the template. The mean value from these duplicate background control samples was subtracted from the corresponding experimental values prior to analyzing results. The sensitivity of the PicoGreen dsDNA assay is reported to be 250 pg/ml (50 pg dsDNA in a […] assay volume) using a fluorescence microplate reader such as was used in these measurements.
FIG. 20 is a graphical representation of the results of RT-PCR using 20 pg of clone REC1—21 template, in which the amount of PCR product (measured in arbitrary fluorescence units) is plotted against number of cycles, where polyA enriched mRNA was extracted from aortas or rabbits that were normocholesterolemic (filled diamonds, “H2”) and hypercholestrolemic plus lercanidipine racemate, eight weeks (filled squares, “F”).

[6] = test system: Rec1_36 (TTAG 155) mRNA; assay: quantified RT-PCR, Rec1_36; format: in vivo, rabbit; details: hypercholesterolemic plus lercanidipine racemate, eight weeks, H2 (normocholesterolemic)=1.0
Method: as §1
Reactions were performed using “Hot Start” PCR with the Clontech TaqStart antibody system (Cat. #5400-1). Each reaction contained 1 ml of the cDNA library dilution as template, determined amounts of AmpliTaq DNA polymerase (cat. #N808-0156), MgCl2, dNTPs (GibcoBRL cat. #10297-018), primer, and Clontech TaqStart Antibody in a 20 ml final reaction volume using 10×Taq buffer II (without MgCl2). Typically, a master mix containing all components except the template was prepared and aliquoted. […] At various times during the PCR run, tubes were removed sequentially on a predetermined schedule in order to quantitate expression of the target DST over a “window” of cycle times. After amplification, the samples were quantified via fluorimetry.
PCR was performed at annealing temperatures that were five degrees above the average melting temperature of each primer pair. For primers greater than 10 bases (in a 0.05M salt solution), melting temperature was calculated using the following formula: Tm=59.9+41[% GC]−[675/Primer Length], where %GC is the decimal value. Following determination of the average melting temperature of the primer pair, the annealing temperature was determined by adding five degrees to the average melting temperature. […]

[7] = test system: smooth muscle cell; details: in vitro (Corsini et al. 1996); cited from earlier work
[8] = in vivo studies (Soma 1998); cited from earlier work
[9] = test system: calcium channel; details: (R)-enantiomer compared with the other enantiomer of lercanidipine; cited from earlier work
[10] = hypercholesterolemic animals receiving lercanidipine racemate
[11] = hypercholesterolemic animals receiving lercanidipine

## COC(=O)C1=C(C)NC(C)=C(C(=O)OC(C)(C)CN(C)CCC(c2ccccc2)c2ccccc2)C1c1cccc([N+](=O)[O-])c1 (racemic) [lercanidipine, lercanidipine hydrochloride]
[1]; cycle 20
  Relative Abundance Rec1_13, 100 pg F: 1.4
[1]; cycle 22
  Relative Abundance Rec1_13, 100 pg F: 33.7
[1]; cycle 24
  Relative Abundance Rec1_13, 100 pg F: 3.0
[1]; cycle 26
  Relative Abundance Rec1_13, 100 pg F: 1.9
[1]; cycle 28
  Relative Abundance Rec1_13, 100 pg F: 1.2
[1]; cycle 30
  Relative Abundance Rec1_13, 100 pg F: 1.3
[1]; [10]
  expression of Rec1_13 at 8 weeks (RT-PCR study), in words: elevated
[2]; cycle 24
  Relative Abundance Rec1_18, 20 pg F: 169.0
[2]; cycle 26
  Relative Abundance Rec1_18, 20 pg F: 5.8
[2]; cycle 28
  Relative Abundance Rec1_18, 20 pg F: 1.0
[2]; cycle 30
  Relative Abundance Rec1_18, 20 pg F: 1.0
[2]; cycle 32
  Relative Abundance Rec1_18, 20 pg F: 1.4
[2]; cycle 34
  Relative Abundance Rec1_18, 20 pg F: 1.1
[2]; [10]
  expression of Rec1_18 at 8 weeks (RT-PCR study), in words: somewhat elevated
[3]; cycle 28
  Relative Abundance Rec1_16, 20 pg F: 0.0
[3]; cycle 30
  Relative Abundance Rec1_16, 20 pg F: 0.2
[3]; cycle 32
  Relative Abundance Rec1_16, 20 pg F: 0.6
[3]; cycle 34
  Relative Abundance Rec1_16, 20 pg F: 0.3
[3]; [11]
  expression of Rec1_16 at 8 weeks (RT-PCR study), in words: decreased
[4]; cycle 24
  Relative Abundance Rec1_19, 100 pg F: 0.0
[4]; cycle 26
  Relative Abundance Rec1_19, 100 pg F: 0.0
[4]; cycle 28
  Relative Abundance Rec1_19, 100 pg F: 0.0
[4]; cycle 30
  Relative Abundance Rec1_19, 100 pg F: 0.1
[4]; cycle 32
  Relative Abundance Rec1_19, 100 pg F: 0.3
[4]; cycle 34
  Relative Abundance Rec1_19, 100 pg F: 0.5
[4]; [11]
  expression of Rec1_19 at 8 weeks (RT-PCR study), in words: decreased
[5]; cycle 24
  Relative Abundance Rec1_21, 20 pg F: 0.0
[5]; cycle 26
  Relative Abundance Rec1_21, 20 pg F: 0.0
[5]; cycle 28
  Relative Abundance Rec1_21, 20 pg F: 0.0
[5]; cycle 30
  Relative Abundance Rec1_21, 20 pg F: 0.1
[5]; cycle 32
  Relative Abundance Rec1_21, 20 pg F: 0.1
[5]; cycle 34
  Relative Abundance Rec1_21, 20 pg F: 0.3
[5]; [11]
  expression of Rec1_21 at 8 weeks (RT-PCR study), in words: substantially decreased
[6]; cycle 30
  Relative Abundance Rec1_36, 100 pg F: 0.2
[6]; cycle 32
  Relative Abundance Rec1_36, 100 pg F: 0.5
[6]; cycle 34
  Relative Abundance Rec1_36, 100 pg F: 0.4
[7]
  smooth muscle cell migration and proliferation: effectively reduce
[8]
  aortic fatty lesion deposition: inhibit

## COC(=O)C1=C(C)NC(C)=C(C(=O)OC(C)(C)CN(C)CCC(c2ccccc2)c2ccccc2)[C@@H]1c1cccc([N+](=O)[O-])c1.Cl (single isomer, unassigned) [(R)-lercanidipine]
[9]
  effectiveness as a ligand to the calcium channel, less effective: 2-3 orders of magnitude
